Data on one substance can be found in patent US20090155875A1, “Methods to Enhance Carbon Monoxide Dehydrogenase Activity and Uses Thereof” (priority 2005, published 2009).

For one assay, the system named is CODH. Put plainly: CODH activity by reduction of methyl viologen coupled to CO oxidation (absorption at 578 nm). It is filed as biochemical, R. rubrum. How it is done:
CODH activity was determined by the reduction of methyl viologen coupled to CO oxidation and the concomitant absorption at 578 nm by UV spectrophotometry. CODH activity was measured in an anaerobic reaction mixture containing 50 mM Tris-HCl, 2 mM methyl viologen and 2 mM dithiothreitol at pH 8.7 (Maness, P. C. and Weaver, P. F. (2002) Int. J. Hydrogen Energy 27:1407-11). The cell free, CODH-enriched fraction was prepared as described (Maness, P. C. and Weaver, P. F. (2001) Appl. Microbiol. Biotechnol. 57:751-6). The supernatant was used as the source of CODH enzyme.

Another assay has as its system Hydrogenase. Kind of assay: Hydrogenase activity in whole cells by H2 evolution (gas chromatography). It is filed as cell-based, R. rubrum. How it is done:
Hydrogenase activity was determined using whole cells by measuring H2 evolution in an anaerobic reaction mixture containing 2 mM methyl viologen, 0.1% (w/v) Triton X-100 and 50 mM potassium phosphate buffer at pH 7.0. The reaction was initiated by adding 5 mM sodium dithionite. The reaction was incubated 15 minutes at 30° C. in a shaking water bath. The reaction was terminated by addition of 0.1 ml 10% (w/v) tricholoroacetic acid. Hydrogen in the gas phase was determined by gas chromatography as described in Maness, P. C. and Weaver, P. F. (2001) Appl. Microbiol. Biotechnol. 57:751-6.

Chain of CODH (P31896 2-639): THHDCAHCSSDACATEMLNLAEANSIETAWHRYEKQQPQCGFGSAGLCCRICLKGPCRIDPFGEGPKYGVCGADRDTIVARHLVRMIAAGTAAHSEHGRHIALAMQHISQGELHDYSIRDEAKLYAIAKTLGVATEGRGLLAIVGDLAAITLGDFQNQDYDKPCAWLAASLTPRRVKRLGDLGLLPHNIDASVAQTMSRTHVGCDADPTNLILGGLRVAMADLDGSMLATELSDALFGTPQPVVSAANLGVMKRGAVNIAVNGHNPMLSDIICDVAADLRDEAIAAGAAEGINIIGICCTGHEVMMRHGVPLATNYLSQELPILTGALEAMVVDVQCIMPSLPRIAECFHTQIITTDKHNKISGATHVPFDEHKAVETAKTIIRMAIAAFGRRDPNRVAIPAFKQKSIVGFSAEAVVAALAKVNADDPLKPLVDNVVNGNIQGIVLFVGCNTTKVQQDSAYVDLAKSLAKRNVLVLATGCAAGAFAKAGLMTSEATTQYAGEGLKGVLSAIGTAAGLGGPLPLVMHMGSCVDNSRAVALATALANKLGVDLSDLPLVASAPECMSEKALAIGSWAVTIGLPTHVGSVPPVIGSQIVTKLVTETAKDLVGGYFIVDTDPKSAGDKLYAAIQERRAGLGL

For the substance “hemoglobin: human α- and β-globin chains encoded in pHE2 plasmid; purified from E. coli and added, or expressed in the cells”, the CODH activity in the assay with CODH (addition of hemoglobin (soluble, final 1.5 μM heme), untreated 17.76±2.85, p<9×10^−6) is 32.41±4.03 μmol methyl viologen reduction/min/ml; in the assay on CODH (expression of hemoglobin in the cells (pHE2 plasmid, IPTG induced), p<0.005) it was 29.60±7.30 μMol methyl viologen reduction/min/ml. In addition, the hydrogenase activity is 250.4±89.1 nMol H2/min/mg cell dry weight in the assay with Hydrogenase (expression of hemoglobin in the cells, p<0.02) and 266.9±27.0 nMol H2/min/mg cell dry weight in the assay on Hydrogenase (first statement, printed as 'hemoglobin expression', untreated 137.6±15.0, p<2×10^−6).
